{
  "source": "patent US20110201679A1",
  "about": "“Use of Tocotrienols for Elevating IKBKAP Gene Expression and Treating Neurodegenerative Diseases or Disorders” (priority 2004, published 2011)",
  "format_in_all_cases": "cell-based, human",
  "key": {"[1]": {"tested_on": "IKAP transcript", "assay": "Real-time RT-PCR analysis of IKAP RNA in FD-derived and normal fibroblast cells", "conditions": "for effect on cellular levels of IKAP transcripts: 48 h, 25 and 2.5 μg/ml", "experimental": "In order to identify agents that could modulate the level of the wild type IKAP transcript produced in FD-derived cells, either by increasing transcription or modulating splicing, FD-derived fibroblast cells (GM00850) were treated with a variety of biological agents. RNA was isolated from the treated cells and was subjected to real-time RT-PCR analysis using primers specific for the wild-type IKAP transcript. More specifically, FD-derived fibroblast cells, seeded in 96-well plates at a concentration of 4000 cells/well for at least one day prior to treatment, were treated in triplicate for approximately 48 h unless noted otherwise. After treatment, the cells were washed once with PBS and then lysed in 50 μl of Cell-to-cDNA lysis buffer (Ambion) at 75° C. for 12 min. After one freeze-thaw cycle, 4 μl of lysate was used in 20 μl RT-PCRs. The Quantitect SYBR Green RT-PCR Kit (Qiagen) was used for real-time RT-PCR analysis of the relative quantities of the exon 20-containing transcript (wild-type), the exon 20-lacking transcript (mutant), as well as an exon 34-35-containing transcript that is unaffected by the FD-causing mutation (total). An ABI PRISM 7000 Sequence Detection System (Applied Biosystems), programmed as follows, was used to perform the real-time RT-PCR and analysis: 50° C. for 30 min and 95° C. for 15 min for one cycle, followed by 40 cycles of 94° C. for 15 s, 57-60° C. for 30 s, and 72° C. for 30 s. To present relative amounts of PCR product obtained, results were expressed as changes in the threshold cycle (ΔCT) compared to untreated cells. The threshold cycle refers to the PCR cycle at which the fluorescence of the PCR is increased to a calculated level above background. A change of 1.0 in CT, assuming 100% PCR efficiency, would reflect a twofold change in the starting amount of the RNA template that was amplified.\nTo control for the amount of RNA present in the samples, RT-PCR amplification of ribosomal 18S RNA was performed on all cell lysates. […] For this analysis, TaqMan Ribosomal RNA Control Reagents were used with the TaqMan EZ RT-PCR Kit (Applied Biosystems) as per the manufacturer's protocol.\nTo characterize the kinetics of the δ-tocotrienol-mediated accumulation of the IKAP transcript, FD-derived (GM00850 and GM04663) and normal (GM02912) fibroblast cells were exposed to 12.5 μg/ml of δ-tocotrienol for periods up to 48 h and the amount of the IKAP-encoding transcripts was determined by real-time RT-PCR, as described above.\nTo evaluate the IKAP mRNA-inducing ability of other molecules in the vitamin E family that are related to […], GM00850, GM04663, and GM02912 cells were incubated in the absence or presence of 25 and 2.5 μg/ml of either α, β, γ, or δ tocopherols or tocotrienols.\nAs described above, α, β, γ or δ tocopherol alone had no impact on IKAP mRNA levels when FD-derived or normal fibroblasts were treated for 48 hr. To determine if α-tocopherol in combination with tocotrienols would have an impact on IKAP mRNA levels, FD-derived GM00850 and GM04663 fibroblasts were treated for 48 hr with either 25 or 12.5 μg/mL of a mixture of α, β, γ and δ tocotrienols alone or in combination with 50 μg/mL of α-tocopherol."}, "[2]": {"tested_on": "IKAP transcript", "assay": "Real-time RT-PCR analysis of wild-type IKAP RNA in LA1-55n cells", "conditions": "LA1-55n neuroblastoma cells, 48 h, varying concentrations", "experimental": "FIG. 7. Real-time RT-PCR analysis of wild-type IKAP RNA in LA1-55n cells. cDNA was prepared from LA1-55n cells incubated for 48 h in the absence or presence of varying concentrations of δ-tocotrienol. The relative amounts of IKAP RNA present in these cells were determined by real-time RT-PCR. The results presented represent mean values obtained in three experiments, each done in triplicate.\nThe response of the neuroblastoma-derived LA1-55n cell line, which has characteristics of sympathetic neurons (J. L. Biedler, et al., “Human Neuroblastoma Cell Differentiation, in: D. Raghavan, et al., Principles and Practice of Genitourinary Oncology, Lippincott-Raven, pp. 1053-1061, (1997); D. L. Lazarova, et al., “A Neuronal-Specific RNA-Binding Protein, is a Putative Regulator of N-myc pre-mRNA Processing/Stability in Malignant Human Neuroblasts”, Oncogene 18: 2703-2710 (1999)), to treatment with […] was examined."}, "[3]": {"tested_on": "full-length IKAP", "assay": "Western blot analysis of full-length IKAP in fibroblast cells", "conditions": "12.5 μg/ml", "experimental": "Western blot analysis was performed on cellular extracts prepared from δ-tocotrienol-treated FD-derived (GM00850 and GM04663) and normal (GM02912) fibroblast cells, using a monoclonal antibody generated against a peptide corresponding to exons 23-28 of IKAP that only recognize the full-length IKAP. Basically, cells treated for 48 h with 12.5 μg/ml of δ-tocotrienol were washed twice with PBS and lysed in 0.5 M Tris-HCl, pH 6.8, containing 1.4% SDS. Western blot analysis was performed essentially as described by B. Y. Rubin (Proc. Natl. Acad. Sci. USA 82: 6637-6641 (1985)). Essentially, equal amounts of protein fractionated on a 7% NuPAGE Tris-Acetate Gel (Invitrogen) were blotted onto nitrocellulose (Bio-Rad) and probed overnight with a monoclonal anti-body (BD Biosciences) directed against the carboxyl end (exons 23-28) of IKAP. The blot was then washed and probed with a goat anti-mouse antibody conjugated to alkaline phosphatase (Promega), followed by detection with Western Blue Substrate solution (Promega)."}, "[4]": {"tested_on": "IKBKAP gene transcription", "assay": "Nuclear run-on transcription assay in GM04663 cells", "conditions": "48 h, 12.5 μg/ml, versus untreated cells", "experimental": "The δ-tocotrienol-mediated accumulation of the IKAP-encoding transcripts was either the result of an elevation in the level of gene transcription or the stabilization of this RNA. To distinguish between these possibilities, nuclear run-on transcription assays were performed on cells incubated in either the presence or absence of δ-tocotrienol. Isolation of nuclei and transcription in the presence of [α-^32P]UTP (Perkin Elmer Life Sciences) were performed essentially as described by B. Y. Rubin (J. Biol. Chem. 266: 24245-24248 (1991)). Briefly, confluent monolayers of GM04663 cells in 175 cm^2 flasks were incubated for 48 h in the presence or absence of 12.5 μg/ml δ-tocotrienol. The cells were then lysed by Dounce homogenization and the resultant nuclei were incubated with 250 μCi [α-^32P]UTP. The radiolabeled RNA was treated with DNase, purified with Trizol LS reagent (Invitrogen), and then hybridized to 5 μg of plasmid containing either a full-length cDNA encoding IKAP or a cDNA encoding GAPDH that was immobilized on Nytran Super-Charge nylon membrane (Schleicher & Schuell) using a spot-blot apparatus. The amount of radiolabeled RNA bound was detected by autoradiography and then quantitated by densitometric scanning of the X-ray film."}, "[5]": {"conditions": "GM00850, GM04663 and GM02912 cells"}},
  "note": "Entries after “also recorded” stand apart in the source; their conditions may differ.",
  "data": [
    {"smiles": "Cc1cc(O)c(C)c2c1O[C@](C)(CCC[C@H](C)CCC[C@H](C)CCCC(C)C)CC2", "note": "[β-tocopherol, β-Tocopherol]", "values": [
      {"measurement": "effect on cellular levels of IKAP transcripts", "setting": "[1]; [5]", "value": "no impact; also recorded: no effect"}
    ]},
    {"smiles": "CC(C)=CCC/C(C)=C/CC/C(C)=C/CC[C@]1(C)CCc2c(C)c(O)c(C)c(C)c2O1", "note": "[α-tocotrienol, α-Tocotrienol]", "values": [
      {"measurement": "effect on cellular levels of IKAP transcripts", "setting": "[1]; [5]", "value": "as much as sixfold"}
    ]},
    {"smiles": "CC(C)=CCC/C(C)=C/CC/C(C)=C/CC[C@]1(C)CCc2cc(O)cc(C)c2O1", "note": "[δ-tocotrienol, δ-Tocotrienol]", "values": [
      {"measurement": "increase in IKAP transcript levels", "setting": "[2]", "value": "almost a twofold increase"},
      {"measurement": "increase in amount of full-length IKAP produced", "setting": "[3]; FD-derived fibroblasts GM00850 and GM04663, 48 h, on average", "value": "approximate two-fold increase"},
      {"measurement": "IKAP level as percentage of the level present in untreated normal (GM02912) cells", "setting": "[3]; treated FD-derived cells GM00850 and GM04663, 48 h, untreated FD cells 26-30%", "value": "48-65%"},
      {"measurement": "increase in IKBKAP gene transcription", "setting": "[4]", "value": "approximately 3.5 fold"},
      {"measurement": "level of wild-type IKAP transcript", "setting": "[1]; FD-derived fibroblast GM00850, about 48 h, varying concentrations", "value": "concentration-dependent elevation"},
      {"measurement": "change in threshold cycle (ΔCT) relative to untreated cells", "setting": "[1]; GM00850, 48 h, highest concentration tested", "value": 2.5},
      {"measurement": "increase in levels of truncated and wild-type IKAP transcripts", "setting": "[1]; GM00850, 48 h, highest concentration tested, relative to untreated cells", "value": "as much as a sixfold increase"},
      {"measurement": "levels of IKAP-encoding transcripts over time", "setting": "[1]; GM00850, GM04663 and GM02912 cells, 12.5 μg/ml, 24 h after start of treatment, versus untreated cells, accumulation continues through 48 h", "value": "significantly elevated levels"},
      {"measurement": "effect on cellular levels of IKAP transcripts", "setting": "[1]; [5]", "value": "as much as sixfold"}
    ]},
    {"smiles": "Cc1c(C)c2c(c(C)c1O)CC[C@@](C)(CCC[C@H](C)CCC[C@H](C)CCCC(C)C)O2", "note": "[α-tocopherol, α-Tocopherol]", "values": [
      {"measurement": "effect on cellular levels of IKAP transcripts", "setting": "[1]; [5]", "value": "no impact; also recorded: no effect"},
      {"measurement": "enhancement of tocotrienol-induced increase in IKAP mRNA", "setting": "[1]; GM00850 and GM04663, 48 hr, 50 μg/mL α-tocopherol with 25 or 12.5 μg/mL mixture of α, β, γ and δ tocotrienols, versus tocotrienol-only treated cells", "value": "≤ 40", "unit": "%"},
      {"measurement": "effect on IKAP mRNA levels, alone", "setting": "[1]; GM00850 and GM04663 fibroblasts, 48 hr, 50 μg/mL α-tocopherol alone", "value": "no effect"}
    ]},
    {"smiles": "CC(C)=CCC/C(C)=C/CC/C(C)=C/CC[C@]1(C)CCc2c(C)c(O)cc(C)c2O1", "note": "[β-tocotrienol, β-Tocotrienol]", "values": [
      {"measurement": "effect on cellular levels of IKAP transcripts", "setting": "[1]; [5]", "value": "as much as sixfold"}
    ]},
    {"smiles": "Cc1cc(O)cc2c1O[C@](C)(CCC[C@H](C)CCC[C@H](C)CCCC(C)C)CC2", "note": "[δ-tocopherol, δ-Tocopherol]", "values": [
      {"measurement": "effect on cellular levels of IKAP transcripts", "setting": "[1]; [5]", "value": "no impact; also recorded: no effect"}
    ]},
    {"smiles": "Cc1c(O)cc2c(c1C)O[C@](C)(CCC[C@H](C)CCC[C@H](C)CCCC(C)C)CC2", "note": "[γ-tocopherol, γ-Tocopherol]", "values": [
      {"measurement": "effect on cellular levels of IKAP transcripts", "setting": "[1]; [5]", "value": "no impact; also recorded: no effect"}
    ]},
    {"smiles": "CC(C)=CCC/C(C)=C/CC/C(C)=C/CC[C@]1(C)CCc2cc(O)c(C)c(C)c2O1", "note": "[γ-tocotrienol, γ-Tocotrienol]", "values": [
      {"measurement": "effect on cellular levels of IKAP transcripts", "setting": "[1]; [5]", "value": "as much as sixfold"}
    ]}
  ]
}
